Results on one substance are retold here after patent US10781160B1, “Hexadecyl Treprostinil crystals and methods for preparation thereof” (CHIROGATE INTERNATIONAL INC., priority 2019, dated 2020).

The format of this series is physicochemical. The procedure:
Moreover, the assay of Hexadecyl Treprostinil crystal Form I can be kept between about 98.0% to about 102.0% even after thirty-six months of placement under normal storage temperature (about 5° C. to about −20° C.). […] Moreover, the assay of Hexadecyl Treprostinil crystal Form II can be kept between about 98.0 to about 102.0% even after thirty-six months of placement under normal storage temperature (about 5° C. to about […]).

Regarding “Hexadecyl Treprostinil [Hexadecyl Treprostinil crystal Form I]”, the “stability (other crystalline forms or degraded products of impurities)” value was “no other crystalline forms or degraded products of impurities”.
